These results are taken from US20120129818A1, “Compositions and Methods for Treatment of Cardiovascular Disease” (priority 2009, published 2012).

The structures appear in SMILES notation.

One assay has as its target T1, human MPO (Homo sapiens, UniProt P05164).
T1 construct: purchased Sigma-Aldrich
Put plainly: Myeloperoxidase (MPO) activity assay with tetramethyl benzidine (TMB) substrate. Format: biochemical. Particulars: for Ki: 50 mM sodium acetate buffer pH 5.6, read-out: Ki (inhibitory values of MPO). An excerpt:
Various methods of measuring a reduction in MPO activity are known to those of ordinary skill in the art and can be used in accordance with the present invention. For example, in one embodiment, MPO activity can be measured by combining an amount of an MPO enzyme, or a sample containing an MPO enzyme, with H2O2, a tetramethyl benzidine (TMB) substrate, and an MPO inhibitor (e.g., a compound of the present invention), and then measuring the optical density of the resulting product.
Typically, the reaction mixture (200 μl) contained 20 mU human MPO (Sigma-Aldrich, St. Louis, Mo.), 400 nmol H2O2, 1.6 μmol of TMB, and varying concentrations of methylenedioxyphenyl ferulate (Formula (II)) or ferulylproline (Formula (XVI)).
The reaction was performed in a volume of 200 μl with 50 mM sodium acetate buffer at pH 5.6. The reaction was initiated by adding MPO and the optical density of the product formed was then read at 650 nm in a microplate reader at various time points.

The test system of assay [1] is human low-density lipoprotein (LDL). The experiment in a line: Cu (II) induced LDL oxidation, conjugated diene formation at 234 nm. The assay is classed as biochemical. Particulars: 10 and 25 μM compound, 100 μg LDL protein, 5 μM Cu (II), pH 7.4, room temperature (FIG. 6). The method, then: To determine the effect of the presently-disclosed compounds on low-density lipoprotein (LDL) oxidation, standard LDL oxidation reactions were carried out in the presence of methylenedioxyphenyl ferulate (FMDP; Formula (II)) and ferulylproline (Formula (XVI). Briefly, the in vitro oxidation reaction of LDL was carried out at room temperature in potassium phosphate buffer, pH 7.4. The reaction mixture contained 100 μg LDL protein and 5 μM Cu (II) with a final volume of 1 mL. The oxidation of LDL was followed by measuring the formation of a conjugated diene at 234 nm for a total of 300 min using a spectrophotometer. The time course of Cu (II) induced LDL oxidation was then performed. […] The increase in the oxidation of LDL in presence of 10 μM and 25 μM ferulylproline was attributed to the formation of Cu (II)-ferulylproline complex which would act as a pro-oxidant of LDL. Oxidation of LDL lipid by Cu (II) mediated oxidation both in the absence of any inhibitor and in the presence of 10 μM and 25 μM of methylenedioxyphenyl ferulate and ferulylproline was performed by monitoring the oxidation for 200 minutes.

In assay [2] the test system is xanthine/xanthine oxidase. The experiment in a line: Superoxide mediated cytochrome c reduction catalyzed by xanthine/xanthine oxidase. The assay is classed as biochemical. Particulars: different concentrations of inhibitor, 549 nm (FIG. 7). The method, then:
The reaction mixture contained 250 μL of 5 mM hypoxanthine (1.25 mM final concentration), 100 μL of cytochrome c in buffer, 10 μL of xanthine oxidase enzyme and different concentrations of inhibitor. The final volume was made up to 1 mL with phosphate buffer. The oxidation was monitored by scanning wavelengths between 500 nm to 600 nm with five measurements. The cycle scanning time was 30 seconds.

Assay [3] is described as follows: Chlorotaurine formation (HOCl-mediated chlorination of taurine, TNB readout at 412 nm). The note with it: various concentrations, 37° C. for 10 min, absorption 412 nm (FIG. 8). The method, then:
Chlorotaurine is formed by the oxidation of taurine by the chlorinating oxidant hypochlorous acid (HOCl), which is formed by MPO-mediated 2-electron oxidation of chloride by H2O2. To determine if the compounds of the present invention were capable of inhibiting the formation of chlorotaurine, a reaction mixture was produced that contained 50 uL of 150 mM taurine, various concentrations of methylenedioxyphenyl ferulate (Formula (II)) or ferulylproline (Formula (XVI)), and 250 μL of hypochlorous acid in sodium phosphate buffer. The mixture was incubated at 37° C. for 10 min followed by addition of 60 μL of 40 mM thionitrobenzoic acid (TNB). The whole solution was made up to 1.5 mL and absorption was measured at 412 nm using a UV-Visible spectrophotometer. […] Furthermore, although both of these compounds react differently toward chlorotaurine oxidation, they seem to show specificity toward MPO inhibition.

The target of another assay is T2, MPO (Homo sapiens, UniProt P05164).
T2 sequence (P05164 49-745): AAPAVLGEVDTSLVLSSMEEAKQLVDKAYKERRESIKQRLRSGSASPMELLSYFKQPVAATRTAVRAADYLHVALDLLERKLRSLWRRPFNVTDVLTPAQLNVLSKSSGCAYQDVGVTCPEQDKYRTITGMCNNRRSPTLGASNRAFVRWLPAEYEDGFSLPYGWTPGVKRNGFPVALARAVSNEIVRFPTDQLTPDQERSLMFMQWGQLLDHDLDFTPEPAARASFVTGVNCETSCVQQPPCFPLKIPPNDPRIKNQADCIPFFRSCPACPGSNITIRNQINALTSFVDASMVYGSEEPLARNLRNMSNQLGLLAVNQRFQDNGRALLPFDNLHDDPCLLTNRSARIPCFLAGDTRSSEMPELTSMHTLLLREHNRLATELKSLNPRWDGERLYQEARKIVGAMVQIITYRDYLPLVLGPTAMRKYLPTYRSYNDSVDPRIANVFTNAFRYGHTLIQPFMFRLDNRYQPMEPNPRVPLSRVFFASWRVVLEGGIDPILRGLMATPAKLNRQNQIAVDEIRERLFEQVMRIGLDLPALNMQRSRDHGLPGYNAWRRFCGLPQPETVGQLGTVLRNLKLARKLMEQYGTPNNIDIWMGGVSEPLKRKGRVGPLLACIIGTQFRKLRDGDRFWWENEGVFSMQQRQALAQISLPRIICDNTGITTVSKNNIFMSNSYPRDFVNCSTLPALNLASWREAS
Put plainly: Analysis of whether the compounds act as MPO substrates (UV-Visible spectrum, TLC). The assay is classed as biochemical. The method, then:
It is known that MPO acts on a variety of substrates and, as such, it was thought that it may be theoretically possible that methylenedioxyphenyl ferulate (Formula (II)) and ferulylproline (Formula (XVI)) could be acting as MPO substrates and competitively masking the formation of products from the added substrates in the above-described experiments. […] In these experiments, a reaction mixture was produced that contained 720 μL of sodium acetate buffer, 100 μL of 100 mM H2O2, 100 μL of MPO enzyme with added compounds of the present invention, and a total volume made up to 1 mL. Upon analysis of this reaction mixture, however, there was no indication of any colored product even when the reaction mixture contained only the inhibitor and not the MPO substrate. To strengthen this finding, thin layer chromatography (TLC) was run with the MPO assay solution and inhibitor (50% ethylacetate:hexane) and spot identification was done in an iodine chamber.

As a reminder, the Ki is a measure of affinity in units of concentration, obtained from inhibition or displacement. In the case of `COc1cc(/C=C/C(=O)Oc2ccc3c(c2)OCO3)ccc1O` [methylenedioxyphenyl ferulate], the Ki on human MPO is 8.5 µM.
For the compound `COc1cc(/C=C/C(=O)N2CCCC2C(=O)O)ccc1O` (centres unmarked) [ferulylproline], on human MPO, the inhibition constant Ki came to 4 µM. In addition, at human MPO (varying concentrations, OD 650 nm (FIGS. 4 and 5)), the “Inhibition of MPO activity” value is listed as “significantly inhibited MPO”. In addition, the “Effect on Cu (II) induced LDL oxidation” value in assay [1] is “acted as a pro-oxidant reducing the lag time”. Also, the “Inhibition of superoxide mediated cytochrome c reduction” value in assay [2] is on record as “inhibited the reaction”. For the same compound, the “Inhibition of chlorotaurine formation” value in assay [3] was “did not cause any inhibition”. Also, the “Product formation during the MPO reaction by TLC / MPO substrate behaviour” value on MPO (MPO assay solution and inhibitor, 50% ethylacetate:hexane, iodine chamber) is “do not act as an MPO substrate”. Moreover, the “Product formation in UV-Visible spectrum between 200 to 700 nm with and without MPO” value at MPO (sodium acetate buffer, H2O2, MPO enzyme, no MPO substrate (FIGS. 9 and 10)) is recorded as “failed to show any product”.
